These results are taken from patent US20150289512A1, “METHOD FOR PROMOTING PLANT GROWTH” (SUMITOMO CHEMICAL COMPANY, LIMITED, priority 2012, published 2015).

One test has as its system Nicotiana benthamiana. Kind of test: Test Example 4: growth promotion under low-temperature stress by hydroponics of Nicotiana benthamiana, 10 ppm. The format is in vivo. The settings on record: 10 ppm in medium, low-temperature stress 7 days at 1.5±1.0° C., green leaf area 3 days later, equation (1). Summed up:
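Nicotiana benthamiana grown 7 days at 22 °C in half-strength Murashige-Skoog medium, pH 5.8, with compound at 10 ppm (DMSO 1/1,000 v/v), chilled 7 days at 1.5±1.0 °C, recovered 3 days at 22 °C. Green leaf area expressed relative to stressed and unstressed DMSO controls; ≥5 scored as mitigating.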

Test [1] deals with Rice (variety: Nipponbare). Kind of test: Test Example 1: promotion of root growth by hydroponics of rice, 10 ppm. Format: in vivo. The conditions noted are these: Oryza sativa, hydroponic solution containing the test compound at 10 ppm, average of 4 or 5 individuals, read-out: Relative value of length of seminal root (%-untreated control plot). Summed up: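 Surface-sterilised seeds germinated 3 days in the dark at 28° C in hydroponic solution with compound at 10 ppm, then grown 3 days hydroponically with compound at 10 ppm (26° C, 4,000 lux, 16 h day, 50% humidity). Seminal root length measured by image analysis, averaged over 4 or 5 plants per plot.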

SMILES strings stand for the structures.

On to `COC(=O)c1cc2ccccc2o1` [Compound 1], for which the relative leaf area at 10 ppm in the test with Nicotiana benthamiana is ≥ 5%.
Turning to `COC(=O)c1oc2ccc(C(F)(F)F)cc2c1C` [Compound 33], the change in vivo at 10 ppm in test [1] was > 5%. The relative leaf area at 10 ppm in the test on Nicotiana benthamiana was ≥ 5%.
As for `Cc1c(C(=O)O)oc2ccc(C(F)(F)F)cc12` [Compound 34], in the test on Nicotiana benthamiana, the relative leaf area at 10 ppm was ≥ 5%.
As to `Cc1c(C(=O)O)oc2ccccc12` [Compound 36], the change in vivo at 10 ppm in test [1] was > 5%.
With `COC(=O)c1oc2ccccc2c1C` [Compound 37], the change in vivo at 10 ppm in test [1] is > 5%.
For the compound `COC(=O)c1oc2ccccc2c1NC(=O)C(F)(F)F` [Compound 39], the change in vivo at 10 ppm in test [1] is > 5%. Moreover, in the test with Nicotiana benthamiana, the relative leaf area at 10 ppm is ≥ 5%.
For `COC(=O)c1oc2ccccc2c1NC(C)=O` [Compound 40], in that order: > 5% and ≥ 5%.
`COC(=O)c1oc2ccccc2c1N(C(C)=O)C(C)=O` [Compound 41]: the relative leaf area at 10 ppm in the test with Nicotiana benthamiana is ≥ 5%.
As to `O=C(O)c1cc2c(C(F)(F)F)cccc2o1` [Compound 43], the change in vivo at 10 ppm in test [1] is > 5%. For the same compound, in the test with Nicotiana benthamiana, the relative leaf area at 10 ppm was ≥ 5%.
Taken in the same sequence, the figures for `CCOC(=O)c1cc2c(C(F)(F)F)cccc2o1` [Compound 44] were > 5% and ≥ 5%.
For `COC(=O)c1oc2ccc(C(F)(F)F)cc2c1O` [Compound 50], the change in vivo at 10 ppm in test [1] is > 5%.
For `NC(=O)c1cc2cc(C(F)(F)F)ccc2o1` [Compound 51], the change in vivo at 10 ppm in test [1] was > 5%. In addition, the relative leaf area at 10 ppm in the test on Nicotiana benthamiana was ≥ 5%.
Turning to `CNC(=O)c1cc2cc(C(F)(F)F)ccc2o1` [Compound 52], the change in vivo at 10 ppm in test [1] is > 5%.
For the compound `O=C(Nc1ccccc1)c1cc2cc(C(F)(F)F)ccc2o1` [Compound 53], the change in vivo at 10 ppm in test [1] is > 5%. Further, in the test on Nicotiana benthamiana, the relative leaf area at 10 ppm was ≥ 5%.
With `O=C(NCc1ccccc1)c1cc2cc(C(F)(F)F)ccc2o1` [Compound 54], in test [1], the change in vivo at 10 ppm was > 5%. Besides, the relative leaf area at 10 ppm in the test on Nicotiana benthamiana was ≥ 5%.
Taken in the same sequence, the figures for `O=C(Oc1ccccc1)c1cc2cc(C(F)(F)F)ccc2o1` [Compound 55] were > 5% and ≥ 5%.
As for `O=C(OCc1ccccc1)c1cc2cc(C(F)(F)F)ccc2o1` [Compound 56], the change in vivo at 10 ppm in test [1] is > 5%. The relative leaf area at 10 ppm in the test with Nicotiana benthamiana is ≥ 5%.
For `COC(=O)c1oc2ccc(C(F)(F)F)cc2c1N(C)C` [Compound 62], in that order: > 5% and ≥ 5%.
Taken in the same sequence, the figures for `COC(=O)c1oc2ccc(C(F)(F)F)cc2c1NC(C)=O` [Compound 63] were > 5% and ≥ 5%.
As for `COC(=O)c1oc2ccc(C(F)(F)F)cc2c1N(C(C)=O)C(C)=O` [Compound 64], the relative leaf area at 10 ppm with Nicotiana benthamiana was ≥ 5%.
Same read-out and setting: as for `COC(=O)c1oc2ccc(C(F)(F)F)cc2c1NC(=O)C(F)(F)F` [Compound 65], the figure is ≥ 5%.
As to `COC(=O)c1oc2ccc(C(F)(F)F)cc2c1NS(C)(=O)=O` [Compound 67], the change in vivo at 10 ppm in test [1] is > 5%. Also, the relative leaf area at 10 ppm with Nicotiana benthamiana is ≥ 5%.
In the case of `COC(=O)c1oc2ccc(C(F)(F)F)cc2c1NS(=O)(=O)c1ccccc1` [Compound 68], the change in vivo at 10 ppm in test [1] was > 5%.
On to `O=C(O)c1oc2ccc(C(F)(F)F)cc2c1C(F)(F)F` [Compound 69], for which the change in vivo at 10 ppm in test [1] was > 5%. Also, in the test on Nicotiana benthamiana, the relative leaf area at 10 ppm is ≥ 5%.
As for `CCOC(=O)c1oc2ccc(C(F)(F)F)cc2c1C(F)(F)F` [Compound 71], in test [1], the change in vivo at 10 ppm was > 5%. The relative leaf area at 10 ppm in the test with Nicotiana benthamiana is ≥ 5%.
Consider `O=C(OCc1ccccc1)c1oc2ccc(C(F)(F)F)cc2c1C(F)(F)F` [Compound 73], for which, in the test on Nicotiana benthamiana, the relative leaf area at 10 ppm is ≥ 5%.
Turning to `NC(=O)c1oc2ccc(C(F)(F)F)cc2c1C(F)(F)F` [Compound 74], the change in vivo at 10 ppm in test [1] was > 5%. The relative leaf area at 10 ppm in the test with Nicotiana benthamiana was ≥ 5%.
For `CNC(=O)c1oc2ccc(C(F)(F)F)cc2c1C(F)(F)F` [Compound 75], in that order: > 5% and ≥ 5%.
On to `O=C(Nc1ccccc1)c1oc2ccc(C(F)(F)F)cc2c1C(F)(F)F` [Compound 76], for which the change in vivo at 10 ppm in test [1] was > 5%.
`O=C(NCc1ccccc1)c1oc2ccc(C(F)(F)F)cc2c1C(F)(F)F` [Compound 77]: the relative leaf area at 10 ppm in the test with Nicotiana benthamiana is ≥ 5%.
The same measure, in the same setting: as for `O=C(O)c1cc2cc(Br)ccc2o1` [Compound 79], the figure is ≥ 5%.
Take `CCOC(=O)c1oc2cccc(O)c2c1C` [Compound 80]: the change in vivo at 10 ppm in test [1] was > 5%.
For `O=C(O)c1oc2ccccc2c1C(F)(F)F` [Compound 82], the change in vivo at 10 ppm in test [1] is > 5%. The relative leaf area at 10 ppm in the test on Nicotiana benthamiana is ≥ 5%.
Take `COC(=O)c1oc2ccccc2c1C(F)(F)F` [Compound 83]: the relative leaf area at 10 ppm in the test on Nicotiana benthamiana is ≥ 5%.
`NC(=O)c1oc2ccccc2c1C(F)(F)F` [Compound 85]: in test [1], the change in vivo at 10 ppm was > 5%.
Take `O=C(O)c1nc2c(F)cc(F)cc2s1` [Compound 86]: the change in vivo at 10 ppm in test [1] was > 5%. Besides, in the test on Nicotiana benthamiana, the relative leaf area at 10 ppm was ≥ 5%.
